Measured values as given in US20250144067A1, “PERSONALIZED STARVATION THERAPY FOR CANCER” (Faeth Therapeutics, Inc., priority 2021, published 2025).
Where a name gives a salt, the structure may show the parent alone. Read-outs that look alike come from different tables or passages of the source.

Experiments:
[1] = tested on: NCI-H292 lung cancer cells; experiment: FDA drug screening, complete media vs cholesterol-free media with simvastatin (TABLE 2); format: cell-based, human
[2] = tested on: NCI-H292 lung cancer cells; experiment: FDA drug screening, complete media vs cholesterol-free media without statin (TABLE 1); format: cell-based, human
[3] = NCI-H292 cells, FDA drug library screen, cholesterol-free media with simvastatin 0.04 μM
[4] = NCI-H292 cells, FDA drug library screen, complete media
[5] = complete media minus cholesterol-free media + simvastatin, >0 enhanced anti-cancer activity, about 0 neutral, <0 antagonist
[6] = Complete minus Cholesterol-free, >0 enhanced anti-cancer activity, about 0 neutral, <0 antagonist
[7] = NCI-H292 cells, cholesterol-free media without statin, FDA drug library screen
[8] = NCI-H292 cells, complete media, FDA drug library screen
[9] = NCI-H292 cells, cholesterol-free media with simvastatin 0.04 μM, FDA drug library screen (TABLE 2)
[10] = NCI-H292 cells, complete media, FDA drug library screen (TABLE 2)
[11] = complete media minus cholesterol-free media + simvastatin (0.04 μM), >0 enhanced anti-cancer activity, about 0 neutral, <0 antagonist
[12] = Complete minus Cholesterol-free, greater than 0 enhanced anti-cancer activity, about 0 neutral, below 0 antagonist
[13] = NCI-H292 cells, FDA drug library screen, cholesterol-free media without statin
[14] = complete media vs cholesterol-free media + simvastatin (0.04 μM), >0 enhanced anti-cancer activity, about 0 neutral, <0 antagonist
[15] = Complete minus Cholesterol-free, greater than 0 enhanced anti-cancer activity, about 0 neutral, below 0 antagonists
[16] = NCI-H292 cells in cholesterol-free media without statin
[17] = NCI-H292 cells in complete media
[18] = complete media minus cholesterol-free media + simvastatin (0.04 μM), […]
[19] = Complete minus Cholesterol-free, […]
[20] = NCI-H292 cells, cholesterol-free media without statin
[21] = complete vs cholesterol-free media, greater than 0 enhanced anti-cancer activity, about 0 neutral, below 0 antagonists
[22] = NCI-H292 cells, drug in cholesterol-free media with simvastatin 0.04 μM
[23] = NCI-H292 cells, drug in complete media
[24] = NCI-H292 cells, cholesterol-free media with simvastatin 0.04 μM, cell growth value in FDA drug screen
[25] = NCI-H292 cells, complete media, cell growth value in FDA drug screen

O=c1[nH]cnc2c1ncn2[C@@H]1O[C@H](CO)[C@@H](O)[C@H]1O [Inosine]
Cholesterol-free media + simvastatin (0.04 μM) [1, 3]: 0.924
Complete Media [1, 4]: 1.085
Difference [1, 5]: 0.16
Difference [2, 6]: 0.02
Cholesterol-free [2, 7]: 0.9203
Complete [2, 8]: 0.941

C[N+](C)(C)NCCC(=O)[O-] [Mildronate]
Cholesterol-free media + simvastatin (0.04 μM) [1, 9]: 0.9839
Complete Media [1, 10]: 0.9927
Difference [1, 11]: 0.01
Difference [2, 12]: −0.08
Cholesterol-free [2, 13]: 0.9949
Complete [2, 4]: 0.9146

N[C@@H](CC(=O)N1CCn2c(nnc2C(F)(F)F)C1)Cc1cc(F)c(F)cc1F [Sitagliptin]
Cholesterol-free media + simvastatin (0.04 μM) [1, 3]: 1.605
Complete Media [1, 4]: 1.493
Difference [1, 14]: −0.11
Difference [2, 12]: −0.08
Cholesterol-free [2, 13]: 0.9944
Complete [2, 4]: 0.9145

NC(=O)c1ccccc1O [Salicylamide]
Cholesterol-free media + simvastatin (0.04 μM) [1, 9]: 1.206
Complete Media [1, 10]: 1.141
Difference [1, 11]: −0.07
Difference [2, 15]: −0.58
Cholesterol-free [2, 16]: 1.486
Complete [2, 17]: 0.907

Gramicidin
Cholesterol-free media + simvastatin (0.04 μM) [1, 9]: 0.2157
Complete Media [1, 10]: 0.2144
Difference [1, 18]: 0.00
Difference [2, 19]: −0.14
Cholesterol-free [2, 13]: 0.1906
Complete [2, 4]: 0.04898

CNC[C@H](O)c1cccc(O)c1 [Phenylephrine]
Cholesterol-free media + simvastatin (0.04 μM) [1, 3]: 1.256
Complete Media [1, 4]: 1.518
Difference [1, 5]: 0.26
Cholesterol-free [2, 20]: 1.197
Complete ([2]; NCI-H292 cells, complete media): 0.817
Difference [2, 21]: −0.38

CC1=C(C(=O)Nc2ccccc2)SCCO1 [Carboxin]
Cholesterol-free media + simvastatin (0.04 μM) [1, 9]: 0.9577
Complete Media [1, 10]: 0.9272
Difference [1, 18]: −0.03
Difference [2, 19]: −0.07
Cholesterol-free [2, 7]: 1.397
Complete [2, 8]: 1.326

CC1CNc2c(cccc2S(=O)(=O)N[C@@H](CCCNC(=N)N)C(=O)N2CC[C@@H](C)C[C@@H]2C(=O)O)C1 (stereo partly shown) [Argatroban (monohydrate)]
Cholesterol-free media + simvastatin (0.04 μM) [1, 22]: 1.179
Complete Media [1, 23]: 0.9367
Difference [1, 14]: −0.24
Difference [2, 12]: −0.08
Cholesterol-free [2, 13]: 1.232

CCN(CC)Cc1cc(Nc2ccnc3cc(Cl)ccc23)ccc1O [Amodiaquine (dihydrochloride dihydrate)]
Cholesterol-free media + simvastatin (0.04 μM) [1, 3]: 1.209
Complete Media [1, 4]: 1.606
Difference [1, 5]: 0.40
Cholesterol-free [2, 7]: 0.9158
Complete [2, 8]: 1.353
Difference ([2]; complete vs cholesterol-free media, >0 enhanced anti-cancer activity, about 0 neutral, <0 antagonist): 0.44

O=c1[nH]c2ccccc2n1CCN1CCN(c2cccc(C(F)(F)F)c2)CC1 [Flibanserin]
Cholesterol-free media + simvastatin (0.04 μM) [1, 24]: 1.01
Complete Media [1, 25]: 1.089
Difference [1, 5]: 0.08
Cholesterol-free [2, 20]: 1.364
Complete ([2]; NCI-H292 cells, complete media): 0.9648
Difference [2, 21]: −0.40

COc1c(C)c2c(c(O)c1C/C=C(\C)CCC(=O)O)C(=O)OC2 [Mycophenolic acid]
Cholesterol-free media + simvastatin (0.04 μM) [1, 22]: 0.743
Complete Media [1, 23]: 0.5199
Difference [1, 14]: −0.22
Difference [2, 6]: −0.06
Cholesterol-free [2, 7]: 0.346
Complete [2, 8]: 0.2837

Flupirtine (Maleate)
Cholesterol-free media + simvastatin (0.04 μM) [1, 24]: 0.9024
Complete Media [1, 25]: 0.9412
Difference [1, 5]: 0.04
Difference [2, 15]: −0.56
Cholesterol-free [2, 16]: 1.589

Cc1nnc(C(=O)NC(C)(C)c2nc(C(=O)NCc3ccc(F)cc3)c(O)c(=O)n2C)o1 [Raltegravir (potassium salt)]
Cholesterol-free media + simvastatin (0.04 μM) [1]: 0.8687
Complete Media [1]: 0.9051
Difference [1]: 0.04
Cholesterol-free [2]: 1.332
Complete [2]: 0.9188
Difference [2]: −0.41

N#Cc1ccc(C2CCCc3cncn32)cc1 (stereo not shown) [Fadrozole]
Cholesterol-free media + simvastatin (0.04 μM) [1]: 1.426
Complete Media [1]: 1.038
Difference [1]: −0.39
Cholesterol-free [2]: 0.5349
Complete [2]: 1.016
Difference [2]: 0.48

CO[C@@]1(NC(=O)C(C(=O)O)c2ccc(O)cc2)C(=O)N2C(C(=O)O)=C(CSc3nnnn3C)CO[C@@H]21 (stereo partly shown) [Moxalactam (sodium salt)]
Cholesterol-free media + simvastatin (0.04 μM) ([1]; NCI-H292 cells, FDA library drug in cholesterol-free media with simvastatin 0.04 μM): 1.994
Complete Media ([1]; NCI-H292 cells, FDA library drug in complete media): 1.097
Difference [1, 14]: −0.90
Difference [2, 15]: −0.79
Cholesterol-free [2, 16]: 1.849
Complete [2, 17]: 1.058
